From patent US4870074A, “Substituted benzamide derivatives, for enhancing gastrointestinal motility” (priority 1986, dated 1989)

How the values were obtained:
[1] = system: gastric emptying; assay: Test 1: gastric emptying enhancing activity (phenol red test meal); type: in vivo, Male Wistar rats; settings: for change in vivo at 2 mg/kg / change in vivo at 0.5 mg/kg / change in vivo at 5 mg/kg / change in vivo at 10 mg/kg / change in vivo at 0.2 mg/kg: po, 0.25 h, 60 min before test meal, rat, read-out: Gastric emptying enhancing activity, Increase (emptying rate vs control); for change in vivo at 2 mg/kg: 2.0 mg/kg p.o.; for change in vivo at 0.5 mg/kg: 0.5 mg/kg p.o.; for change in vivo at 5 mg/kg: 5.0 mg/kg p.o.; for change in vivo at 10 mg/kg: 10.0 mg/kg p.o.; for change in vivo at 0.2 mg/kg: 0.2 mg/kg p.o.
Procedure: The test was carried out according to the method of Scarpignato et al. [cf. Arch. int. Pharmacodyn., 246, 286-294 (1980)].
Male Wistar rats, weighing 130-150 g, were fasted for 18 hours before experimentation, and 1.5 ml of a test meal (phenol red 0.05% in a 1.5% aqueous methylcellulose solution) was given by gastric tube. Fifteen minutes after administration of the meal the stomach was removed and the amount of phenol red remaining in the stomach was measured.
The test compounds, dissolved or suspended in a 0.5% tragacanth solution, were orally administered 60 minutes before administration of the test meal. The rate of gastric emptying was calculated according to the amount of phenol red remaining in the stomach, and the activity of the test compounds was expressed in terms of increase in the emptying rate from the control. The number of animals used was 5 for the control and each dose of metoclopramide hydrochloride monohydrate and 4 for each dose of the other test compounds.

[2] = system: central nervous system; assay: Test 3: effect on the central nervous system (CNS effect), Irwin observation; settings: 100 mg/kg, p.o., mouse, 2 hours observation
Procedure: Male ddY mice, weighing 18-25 g, were used in groups of 3 animals each. […] Psychopharmacologia, 13, 222-227 (1968)], comprehensive observation of behavioral and physiologic states were carried out for 2 hours after the oral treatment with 100 mg/kg of the test compound, dissolved or suspended in a 0.5% tragacanth solution. Liability of the test compounds to the central nervous system effect was expressed with the following marks, according to the total sum of potencies for the individually analyzed effects, such as catalepsy, ptosis, hypolocomotin, etc.

CNS effect [2]	SMILES	change in vivo at 2 mg/kg [1] [%]	other results
-	COc1cc(N)c(Cl)cc1C(=O)NCC1CN(Cc2ccccc2)CCO1 (centres unmarked) [18(2), 4-amino-N-[(4-benzyl-2-morpholinyl)methyl]-5-chloro-2-methoxybenzamide]	39.3	
-	CCOc1cc(N)c(Cl)cc1C(=O)NCC1CN(Cc2ccccc2)CCO1 (centres unmarked) [63(1), 4-amino-N-[(4-benzyl-2-morpholinyl)methyl]-5-chloro-2-ethoxybenzamide]	54.4	change in vivo at 0.5 mg/kg [1]: 33.9%
-	CCOc1cc(N)c(Cl)cc1C(=O)NCC1CN(Cc2ccccc2Cl)CCO1 (centres unmarked) [66(1)]	41.3	
-	CCOc1cc(N)c(Cl)cc1C(=O)NCC1CN(Cc2ccc(Cl)cc2)CCO1 (centres unmarked) [68(1)]	62.7	
-	CCOc1cc(N)c(Cl)cc1C(=O)NCC1CN(Cc2cccnc2)CCO1 (centres unmarked) [80(1)]	65.6	
	CCN(CC)CCNC(=O)c1cc(Cl)c(N)cc1OC [A, 4-amino-5-chloro-N-[(2-diethylamino)ethyl]-2-methoxybenzamide, reference compound]	20.7	change in vivo at 5 mg/kg [1]: 25.7%; change in vivo at 10 mg/kg [1]: 30.7%
	CCN1CCOC(CNC(=O)c2ccccc2OC)C1.O=C(O)/C=C/C(=O)O (centres unmarked) [Compound B, N-[(4-Ethyl-2-morpholinyl)methyl]-2-methoxybenzamide fumarate, reference compound]	3.8	gastric emptying enhancing effect (in words) ([1]; even at a dose of 10.0 mg/kg p.o.): did not show any effect; change in vivo at 5 mg/kg [1]: -1.9%; change in vivo at 10 mg/kg [1]: 2.1%
-	CCOc1cc(N)c(Cl)cc1C(=O)NCC1CN(Cc2ccc(F)cc2)CCO1 (centres unmarked) [Example 1(1), 4-amino-5-chloro-2-ethoxy-N-[[4-(4-fluorobenzyl)-2-morpholinyl]methyl]benzamide]	49.8	change in vivo at 0.2 mg/kg [1]: 39.5%
-	COc1cc(N)c(Cl)cc1C(=O)NCC1CN(Cc2ccc(C#N)cc2)CCO1 (centres unmarked) [Example 6, 4-amino-5-chloro-N-[[4-(4-cyanobenzyl)-2-morpholinyl]methyl]-2-methoxybenzamide]	49.2	
	CCOc1cc(NC(C)=O)c(Cl)cc1C(=O)NCC1CN(Cc2ccc(F)cc2)CCO1 (centres unmarked) [Example 7, 4-acetylamino-5-chloro-2-ethoxy-N-[[4-(4-fluorobenzyl)-2-morpholinyl]methyl]benzamide]	74	
-	CCOc1cc(N)c(Cl)cc1C(=O)NCCC1CN(Cc2ccccc2)CCO1 (centres unmarked) [Example 8, 4-amino-N-[2-(4-benzyl-2-morpholinyl)ethyl]-5-chloro-2-ethoxybenzamide]	44.9	
	CCOc1cc(N)c(Cl)cc1C(=O)NCC1CN(Cc2ccccc2Cl)CC(C)O1 (centres unmarked) [Example 14, 4-amino-5-chloro-N-[[4-(2-chlorobenzyl)-6-methyl-2-morpholinyl]methyl]-2-ethoxybenzamide]	47.5	
	CCOc1cc(N)c(Cl)cc1C(=O)NCC1CN(Cc2ccccc2)CCCO1 (centres unmarked) [Example 16, 4-amino-N-[(4-benzyl-hexahydro-1,4-oxazepin-2-yl)methyl]-5-chloro-2-ethoxybenzamide]	47.3	
	COc1cc(N)c(Cl)cc1C(=O)NCC1CN(Cc2c(F)c(F)c(F)c(F)c2F)CCO1 (centres unmarked) [Example 25]	39.1	
	COc1cc(N)c(Cl)cc1C(=O)NCC1CN(Cc2cccc(C(F)(F)F)c2)CCO1 (centres unmarked) [Example 28]	42.8	
	COc1cc(N)c(Cl)cc1C(=O)NCC1CN(Cc2cccc(C#N)c2)CCO1 (centres unmarked) [Example 33]	42.3	
	COc1cc(N)c(Cl)cc1C(=O)NCC1CN(C(C)c2ccccc2)CCO1 (centres unmarked) [Example 37]	42.2	
	COc1cc(N)c(Cl)cc1C(=O)NCC1CN(CCCOc2ccc(Cl)cc2)CCO1 (centres unmarked) [Example 52]	52.5	
	CCOc1cc(N)c(Cl)cc1C(=O)NCC1CN(Cc2ccccc2F)CCO1 (centres unmarked) [Example 64]	59.9	
	CCOc1cc(N)c(Cl)cc1C(=O)NCC1CN(Cc2cccc(F)c2)CCO1 (centres unmarked) [Example 65]	54.1	
-	CCOc1cc(N)c(Cl)cc1C(=O)NCC1CN(Cc2cccc(Cl)c2)CCO1 (centres unmarked) [Example 67]	57.5	
-	CCOc1cc(N)c(Cl)cc1C(=O)NCC1CN(Cc2cccc(C(F)(F)F)c2)CCO1 (centres unmarked) [Example 70]	57.8	
	CCOc1cc(N)c(Cl)cc1C(=O)NCC1CN(Cc2ccc(C#N)cc2)CCO1 (centres unmarked) [Example 73]	46.2	change in vivo at 0.5 mg/kg [1]: 44.2%
-	CCOc1cc(N)c(Cl)cc1C(=O)NCC1CN(Cc2ccc(Cl)cc2[N+](=O)[O-])CCO1 (centres unmarked) [Example 74]	46.7	

CNS effect [2]	SMILES	change in vivo at 2 mg/kg [1] [%]	other results
	CCOc1cc(N)c(Cl)cc1C(=O)NCC1CN(CCCCc2ccccc2)CCO1 (centres unmarked) [Example 76]	47.1	
	CCOc1cc(N)c(Cl)cc1C(=O)NCC1CN(C(C)c2ccccc2)CCO1 (centres unmarked) [Example 77]	43.8	
	CCOc1cc(N)c(Cl)cc1C(=O)NCC1CN(Cc2ccccn2)CCO1 (centres unmarked) [Example 79]	51	
-	CCOc1cc(N)c(Cl)cc1C(=O)NCC1CN(Cc2ccncc2)CCO1 (centres unmarked) [Example 81]	52.9	
	CCCOc1cc(N)c(Cl)cc1C(=O)NCC1CN(Cc2ccccc2)CCO1 (centres unmarked) [Example 86]	55	
+	CCCCOc1cc(N)c(Cl)cc1C(=O)NCC1CN(Cc2ccc(F)cc2)CCO1 (centres unmarked) [Example 89]	49.9	
-	CCCCOc1cc(N)c(Cl)cc1C(=O)NCC1CN(Cc2ccccc2Cl)CCO1 (centres unmarked) [Example 90]	55.4	
-	CC(C)COc1cc(N)c(Cl)cc1C(=O)NCC1CN(Cc2ccccc2)CCO1 (centres unmarked) [Example 91]	51.2	
	CCCCCOc1cc(N)c(Cl)cc1C(=O)NCC1CN(Cc2ccccc2)CCO1 (centres unmarked) [Example 92]	41	
-	CC(C)CCOc1cc(N)c(Cl)cc1C(=O)NCC1CN(Cc2ccccc2)CCO1 (centres unmarked) [Example 93, 4-amino-N-[(4-benzyl-2-morpholinyl)methyl]-5-chloro-2-isopentyloxybenzamide]	44.2	change in vivo at 0.5 mg/kg [1]: 46.9%
-	CC(C)CCOc1cc(N)c(Cl)cc1C(=O)NCC1CN(Cc2ccc(F)cc2)CCO1 (centres unmarked) [Example 94]	52	
-	CC(C)CCOc1cc(N)c(Cl)cc1C(=O)NCC1CN(Cc2ccccc2Cl)CCO1 (centres unmarked) [Example 95]	61.6	change in vivo at 0.2 mg/kg [1]: 34.7%
-	CCCCCCCOc1cc(N)c(Cl)cc1C(=O)NCC1CN(Cc2ccccc2)CCO1 (centres unmarked) [Example 97]	43.8	
-	Nc1cc(OC2CCCC2)c(C(=O)NCC2CN(Cc3ccccc3)CCO2)cc1Cl (centres unmarked) [Example 101]	46.4	
	Nc1cc(OCCCl)c(C(=O)NCC2CN(Cc3ccccc3)CCO2)cc1Cl (centres unmarked) [Example 102]	46.8	
-	CC(=O)COc1cc(N)c(Cl)cc1C(=O)NCC1CN(Cc2ccccc2)CCO1 (centres unmarked) [Example 104]	43.8	
-	CC(O)COc1cc(N)c(Cl)cc1C(=O)NCC1CN(Cc2ccccc2)CCO1 (centres unmarked) [Example 105]	52	
	Nc1cc(OCC2CC2)c(C(=O)NCC2CN(Cc3ccccc3)CCO2)cc1Cl (centres unmarked) [Example 111]	48.7	
	C=CCOc1cc(N)c(Cl)cc1C(=O)NCC1CN(Cc2ccccc2)CCO1 (centres unmarked) [Example 115]	45.6	
-	CC(C)=CCOc1cc(N)c(Cl)cc1C(=O)NCC1CN(Cc2ccccc2)CCO1 (centres unmarked) [Example 116, 4-amino-N-[(4-benzyl-2-morpholinyl)methyl]-5-chloro-2-(3-methyl-2-butenyloxy)benzamide]	52.4	change in vivo at 0.5 mg/kg [1]: 41.4%
	C#CCOc1cc(N)c(Cl)cc1C(=O)NCC1CN(Cc2ccccc2)CCO1 (centres unmarked) [Example 120]	40.6	
	COc1cc(N(C)C)c(Cl)cc1C(=O)NCC1CN(Cc2ccccc2)CCO1 (centres unmarked) [Example 130]	51.8	
	CCOc1cc(N(C)C)c(Cl)cc1C(=O)NCC1CN(Cc2ccccc2)CCO1 (centres unmarked) [Example 132]	50.6	
	CCOc1cc(N)c(Cl)cc1C(=O)NCC1C[N+]([O-])(Cc2ccccc2Cl)CCO1 (centres unmarked) [Example 244, 4-amino-5-chloro-N-[[4-(2-chlorobenzyl)-2-morpholinyl]methyl]-2-ethoxybenzamide N-oxide]	51.8	

SMILES	CNS effect [2]	change in vivo at 2 mg/kg [1] [%]	other results
CCCCOc1cc(N)c(Cl)cc1C(=O)NCC1CN(Cc2ccccc2)CCO1 (centres unmarked) [Example 88, 4-amino-N-[(4-benzyl-2-morpholinyl)methyl]-2-butoxy-5-chlorobenzamide]	-	53.7	change in vivo at 0.2 mg/kg [1]: 32.8%; change in vivo at 0.5 mg/kg [1]: 42.9%
